The record followed here is patent US5770563A, “Heparin- and sulfatide binding peptides from the type I repeats of human thrombospondin and conjugates thereof” (The United States of America as represented by the …, priority 1995, dated 1998).

Where two headings read alike, the source gives them in different places. Square brackets hold non-standard residues; d marks the D form. Peptide text beside a SMILES is read from it.

Assay [1] concerns the target thrombospondin binding to heparin. In words: Inhibition of 125I-thrombospondin binding to immobilized heparin-BSA. Set-up: species or system human. The protocol:
(§1) The peptides were tested as inhibitors of laminin, thrombospondin or apolipoprotein E binding to a heparin-bovine serum albumen conjugate or to a sulfatide in a solid phase assay essentially following the procedure described in Zabrenetzky et al., Cancer Res., Vol. 50, pages 5937-5942 (1990). Sulfatide (0.2 μg/well for thrombospondin binding, 0.6 μg/well for laminin binding) was immobilized in a mixture of 50 ng of phosphatidyl choline, and 30 ng of cholesterol on polyvinyl chloride microtiter plates. Heparin-BSA (0.2 μg/well) was absorbed onto polyvinyl chloride microtiter plate wells by incubation of 50 μl of Dulbecco's PBS for 2 h at 37°. The wells were emptied and filled with 50 mM tris, pH 7.8 containing 150 mM NaCl, 1 mM CaCl2, 0.025% NaN3, and 1% BSA. After 30 minutes, the wells were emptied and 30 μl of various concentrations of potential inhibitory peptides diluted in the same buffer or buffer alone and 30 μl of ^125 I-labeled laminin, thrombospondin or apolipoprotein E (0.2 μg/ml) were added to each well. After 3 hours at 4°, the wells were washed 6 times with 0.15M NaCl, cut from the plate and the bound radioactivity counted. FIGS. 1A-B and 2A-B show the level of thrombospondin binding to sulfatide and heparin-BSA, respectively, in the presence of increasing concetrations of the peptides listed. FIGS. 3 and 4A-B show the level of laminin binding to sulfatide and heparin-BSA, respectively, in the presence of increasing concentrations of the listed peptides.
Microtiter plate wells were coated with heparin-BSA. Heparin-BSA (0.2 μg/well) was adsorbed by incubation in 50 μl of Dulbecco's PBS for 2 h at 370. The wells were emptied, filled with tris-BSA, and incubated for 30 to 60 minutes. The buffer was removed, and labelled thrombospondin was added and incubated in the wells for 3 h at 40. The wells were emptied and washed 4 times with saline. The bottoms of the wells were cut from the plate and counted to quantify thrombospondin binding. Inhibition of thrombospondin binding was determined using peptides diluted in 30 μl of 50 mM tris buffer, pH 7.8, containing 110 mM NaCl, 1 mM CaCl2, 0.025% NaN3, and 1% BSA or buffer alone and 30 μl of ^125 I-labeled TSP (0.2 μg/ml).

Assay [2] deals with thrombospondin binding to sulfatide. In words: Inhibition of 125I-thrombospondin binding to sulfatide. The conditions noted are these: Table 1, free peptide. On the set-up: species or system human. The method, then:
as §1

Assay [3] addresses laminin binding to heparin. In words: Inhibition of 125I-laminin binding to heparin-BSA. Set-up: species or system mouse. The conditions noted are these: Table 2, free peptide. The protocol: as §1
The target of assay [4] is laminin binding to sulfatide. In words: Inhibition of 125I-laminin binding to sulfatide. On the set-up: species or system mouse. The conditions noted are these: Table 2, free peptide. The protocol: as §1
For assay [5], the target named is apolipoprotein E binding to heparin. In words: Inhibition of 125I-apolipoprotein E binding to heparin-BSA. The settings on record: Table 2, free peptide; read-out: IC50 Apo E Binding to Heparin. The protocol: as §1
The subject of assay [6] is A2058 melanoma cells. In words: 125I-thrombospondin binding to A2058 melanoma cells. The class given is cell-based, human. The conditions noted are these: dose dependent. The method, then: Melanoma cells (1×10^5 in 0.2 ml) were incubated with 0.2 μg/ml labeled laminin alone or in the presence of 200 micrograms per ml of peptides from SEQ ID NO:1, SEQ ID NO:2, or SEQ ID NO:3, type-I repeats from thrombospondin (FIG. 5A). Melanoma cells were also incubated with labelled laminin or thrombospondin alone or in the presence of 10 μg/ml of peptides from the first (184, SEQ ID NO:1), second (185, SEQ ID NO:2 and 246, SEQ ID NO:19), or third type I repeat of thrombospondin (186, SEQ ID NO:3) or 1 μg/ml heparin (FIG. 5B). The cells were centrifuged through oil to separate the free laminin from the bound laminin followed by quantifying the radioactivity in the cell pellet by a gamma counter. The results are presented in FIGS. 5A and B, as a percent of control binding determined in the absence of peptide and is the mean of triplicate determinations±the standard deviation.
Melanoma cells (3×10^5 cells in 0.2 ml) were incubated with 0.2 μg/ml of labelled I^125 -thrombospondin alone or in the presence of increasing concentrations of heparin or a peptide having the sequence according to SEQ ID NO:1 or a combination of the two inhibitors. […]
A2058 melanoma cells were harvested as described above and suspended in Dulbecco's PBS containing 1 mg/ml BSA. […] The supernatant fluid was aspirated, and the bottom of the tube was cut and counted.

Assay [7] deals with A2058 melanoma cells. In words: A2058 melanoma cell adhesion to peptides adsorbed on plastic. The class given is cell-based, human. The method, then: Human melanoma cell line A2058 (Todaro et al., Proc. Natl. Acad. Sci USA 77, 5258-5262 (1980)) was maintained by monolayer culture at 37° with 5% carbon dioxide in RPMI 1640 medium containing 10% fetal bovine serum. For attachment assays, cells were removed using trypsin, passaged at 10^4 cells/cm^2 and harvested between days 5 and 7. Attachment and spreading on thrombospondin-coated plastic was determined as previously described (Roberts et al., J. Cell Biol. 104, 131-139 (1987)). Inhibition was determined by adding the inhibitor diluted in 0.4 ml of bicarbonate-free RPMI 1640 medium, containing 1 mg/ml of bovine serum albumin (fatty acid free, Sigma), pH 7.3, to wells of a 24-well dish containing bacteriological polystyrene was coated with the indicated peptides at 200 μg/ml. Melanoma cells were harvested by incubation with phosphate buffered saline containing 2.5 mM EDTA for 20 minutes at 37°. The cells were centrifuged and viability (routinely >99%) was assessed by trypan blue exclusion. The cells were resuspended in medium and allowed to recover in suspension for 1 h. Melanoma cells (2×10^5 ) suspended in 100 μl of medium (approx 10^3 /mm^2) were added to each well and allowed to attach for 60 minutes at 37° C. in a humidified atmosphere.

Assay [8] addresses basic fibroblast growth factor (FGF-2) binding to heparin. In words: Inhibition of 125I-bFGF binding to heparin-BSA conjugate. The conditions noted are these: retro-inverso peptides; read-out: IC50 for Inhibition of Binding. The method, then:
Binding of ^125 I-bFGF to heparin was determined using an immobilized heparin-BSA conjugate as previously described (Guo, et al. (1992) Proc. Nat'l Acad. Sci. 89:3040-3044). ^125 I-bFGF, prepared as described by Neufeld, et al, (1985), J. Biol. Chem. 260:13860-13868, was added described above, and incubated for 2 hours at 25° C. Bound radioactivity was determined after washing and cutting the wells from the plate. FIGS. 40A, B and C show the inhibition of ^125 I-bFGF binding to heparin by a number of TSP peptide analogs.

For assay [9], the system named is bovine endothelial cells. In words: Inhibition of bovine endothelial cell proliferation (Table 7). The conditions noted are these: free peptide; read-out: IC50 Inhibitory Activity, Free Peptide. The class given is cell-based. The method, then: Similar structure-function and epitope mapping studies were carried out with regard to inhibition of bovine endothelial cell proliferation. […] This may be due either to a lower tendency of the conjugates to stick to the microtiter wells or a greater tendency to disrupt binding of the cells to the substratum in the wells.
Endothelial cell proliferation was measured using the CELL TITER 96™ assay (Promega, Madison, Wis.). 5×10^3 cells were plated into each well of a 96-well culture plate in 0.5 or 5% FCS-containing medium together with the indicated concentrations of growth effectors. After 72 h, 15 μl of dye solution was added to each well, and the plates were incubated for an additional 4 h. Solubilization solution was added, and absorbance at 570 nm was determined after 24 h as described by the manufacturer.

Assay [10] concerns AIDS-KS cells. In words: AIDS-KS cell chemotaxis, modified Boyden chamber. The assay is classed as cell-based, human. The conditions noted are these: added in the lower well. The method, then:
Directed migration (chemotaxis) and general migration (chemokinesis) of AIDS-KS cells in culture was measured by the modified Boyden chamber assay using fibronectin coated […] Nucleopore filters as previously described. In brief, the AIDS-KS cells, were trypsinized then resuspended in RPMI 1640 containing […] (GIBCO-BRL) and 20% activated lymphocyte conditioned medium. The trypsinized cells were allowed to recover in suspension for 2 hours, then the cells were recovered by centrifugation and resuspended in RPMI 1640 containing 0.1% BS at 5×10^5 cells/ml prior to adding 100 μl to the upper wells in the chemotaxis chamber. Migration to BSA (0.1%) and OSM was performed in the presence of the indicated concentrations of TSP, and TSP peptide-FICOLL conjugates. After 3 hours incubation at 37° C. filters were stained with Diff Quick (Merz-Dade, Dudingen, Switzerland), and the migrated cells in ten high-power fields were counted. The values are triplicate determinations and the bars indicate standard deviations, n=3.

[11] abbreviates: Table 1, free peptide, read-out: IC50 Heparin Binding, inhibition of 125I-thrombospondin binding.

For orientation: IC50 means the concentration that inhibits the measured activity by half. For `C[C@@H](O)[C@H](NC(=O)[C@H](CO)NC(=O)[C@H](CS)NC(=O)[C@H](CO)NC(=O)[C@@H](NC(=O)[C@H](Cc1c[nH]c2ccccc12)NC(=O)[C@H](CCC(=O)O)NC(=O)[C@H](CO)NC(=O)[C@H](Cc1c[nH]c2ccccc12)NC(=O)[C@@H]1CCCN1C(=O)[C@@H](N)CO)[C@@H](C)O)C(=O)N[C@@H](CO)C(=O)O` [Peptide 184, SPWSEWTSCSTS] (H-SPWSEWTSCSTS-OH), the concentration for half-maximal inhibition (IC50) in [1] (setting [11]) came to 47 µM; in assay [2], 14 µM; in assay [3], 36 µM; in [4], 42 µM; in assay [5], 4.2 µM. Moreover, the “inhibition of thrombospondin binding to A2058 melanoma cells, in words” value in assay [6] is on record as “inhibited”.
Regarding `CC(C)[C@H](NC(=O)[C@H](CO)NC(=O)[C@@H](N)CS)C(=O)N[C@H](C(=O)N[C@@H](CS)C(=O)NCC(=O)O)[C@@H](C)O` [Peptide 187, CSVTCG] (H-CSVTCG-OH), the IC50 in assay [1] (setting [11]) stood at 6 µM; in [2] it was 14 µM; in assay [3] it was 3 µM; in assay [4] it was 3.9 µM; in assay [5], 84 µM. Besides, the “inhibition of thrombospondin binding to heparin, in words” value in [1] (free peptide) is “active”. Also, the “promotion of melanoma cell adhesion, in words” value in assay [7] (peptide adsorbed on plastic) was “promoted significant cell adhesion above background”.
Consider `CC(=O)N[C@H](CS)C(=O)N[C@H](CO)C(=O)N[C@H](CO)C(=O)N[C@H](C)C(=O)N1CCC[C@@H]1C(=O)N[C@H](CO)C(=O)N[C@H](C)C(=O)N[C@H](Cc1c[nH]cn1)C(=O)N[C@H](CO)C(=O)N[C@H](C)C(=O)NCC(=O)NCC(=O)N[C@H](CC(=O)O)C(=O)N[C@H](CCC(N)=O)C(=O)N[C@H](CCCCN)C(=O)N[C@H](C)C(=O)N[C@H](CCCNC(=N)N)C(=O)N[C@H](CCCCN)C(N)=O` [Peptide 513, ri-amKRAKQDGGASHASPASSCac] (Ac-[dC][dS][dS][dA][dP][dS][dA][dH][dS][dA]GG[dD][dQ][dK][dA][dR][dK]-NH2), for which the 50% inhibitory concentration (IC50) in assay [1] (retro-inverso peptides, free, read-out: IC50 Inhibitory Activity, Free Peptide) worked out at 6.2 µM; in assay [8] it was 18 µM; in assay [9], 18 µM.
For “apolipoprotein E: recombinant apolipoprotein E, heparin-binding protein”, the “inhibition of A2058 adhesion to the peptides” value in [7] (disks coated with 200 μg/ml peptide 185) was “inhibited adhesion”.

B1: oncostatin M: growth factor, chemoattractant for AIDS-KS cells (protein, UniProt P13725 26-221, looked up)
Oncostatin-M: AAIGSCSKEYRVLLGQLQKQTDLMQDTSRLLDPYIRIQGLDVPKLREHCRERPGAFPSEETLRGLGRRGFLQTLNATLGCVLHRLADLEQRLPKAQDLERSGLNIEDLEKLQMARPNILGLRNNIYCMAQLLDNSDTAEPTKAGRGASQPPTPTPASDAFQRKLEGCRFLHGYHRFMHSVGRVFSKWGESPNRSRR
As to B1, in assay [10], the “stimulation of AIDS-KS cell motility” value is “simulated motility”.
